Test results as given in ChEMBL document CHEMBL1201862, “PubChem BioAssay data set” (2004).
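Cultured in 96-well plates, cells were exposed to test compound for 48 hours across five concentrations. Here, GI50 denotes the concentration required for 50% inhibition of growth.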 Active and inactive are the calls of the source. No stated cut-off is given here; in the data, active = GI50 up to about 1.1 µM and inactive = higher.

Columns and labels:
Test in all cases: DTP human tumour cell line panel, 48 h
MCF7 = test system: MCF7
OVCAR-4 = test system: OVCAR-4
NCI-H23 = test system: NCI-H23
MDA-MB-231 = test system: MDA-MB-231
SK-MEL-2 = test system: SK-MEL-2
MOLT-4 = test system: MOLT-4
NCI-H226 = test system: NCI-H226
RPMI-8226 = test system: RPMI-8226
T47D = test system: T47D
Hs-578T = test system: Hs-578T
DU-145 = test system: DU-145
SN12C = test system: SN12C
HL-60 = test system: HL-60
Malme-3M = test system: Malme-3M
UACC-62 = test system: UACC-62
OVCAR-5 = test system: OVCAR-5
MDA-N = test system: MDA-N
IGROV-1 = test system: IGROV-1
M14 = test system: M14
OVCAR-3 = test system: OVCAR-3
RXF 393 = test system: RXF 393
HCC 2998 = test system: HCC 2998
SF-539 = test system: SF-539
EKVX = test system: EKVX
COLO 205 = test system: COLO 205
CCRF-CEM = test system: CCRF-CEM
OVCAR-8 = test system: OVCAR-8
BT-549 = test system: BT-549
PC-3 = test system: PC-3
A498 = test system: A498
SF-295 = test system: SF-295
SK-MEL-5 = test system: SK-MEL-5
SNB-75 = test system: SNB-75
786-0 = test system: 786-0
HOP-92 = test system: HOP-92
LOX IMVI = test system: LOX IMVI
UACC-257 = test system: UACC-257
ACHN = test system: ACHN
A549 = test system: A549
KM12 = test system: KM12
HT-29 = test system: HT-29
NCI/ADR-RES = test system: NCI/ADR-RES
SK-MEL-28 = test system: SK-MEL-28
NCI-H460 = test system: NCI-H460
HOP-62 = test system: HOP-62
HCT-15 = test system: HCT-15
SK-OV-3 = test system: SK-OV-3
SW-620 = test system: SW-620
HCT-116 = test system: HCT-116
SNB-19 = test system: SNB-19
SR = test system: SR
MDA-MB-435 = test system: MDA-MB-435
CAKI-1 = test system: CAKI-1
TK-10 = test system: TK-10
U-251 = test system: U-251
UO-31 = test system: UO-31
SF-268 = test system: SF-268
NCI-H522 = test system: NCI-H522
K562 = test system: K562

COC(=O)c1c(CC(Cc2ccc3c(c2)CCCC3)C(=O)O)ccc2c1CCCC2 (stereo not drawn)
GI50 (MCF7): 31.6 µM (inactive)
GI50 (OVCAR-4): 34.5 µM (inactive)
GI50 (NCI-H23): 60.4 µM (inactive)
GI50 (MDA-MB-231): 27.9 µM (inactive)
GI50 (SK-MEL-2): 20.9 µM (inactive)
GI50 (MOLT-4): 37.1 µM (inactive)
GI50 (NCI-H226): 39.9 µM (inactive)
GI50 (RPMI-8226): 27.6 µM (inactive)
GI50 (T47D): 33.4 µM (inactive)
GI50 (Hs-578T): 25.8 µM (inactive)
GI50 (DU-145): 39.6 µM (inactive)
GI50 (SN12C): 36.9 µM (inactive)
GI50 (HL-60): 23 µM (inactive)
GI50 (Malme-3M): 31.3 µM (inactive)
GI50 (UACC-62): 22.4 µM (inactive)
GI50 (OVCAR-5): 43.8 µM (inactive)
GI50 (MDA-N): 43.2 µM (inactive)
GI50 (IGROV-1): 36.8 µM (inactive)
GI50 (M14): 42.9 µM (inactive)
GI50 (OVCAR-3): 18.8 µM (inactive)
GI50 (RXF 393): 35.2 µM (inactive)
GI50 (HCC 2998): 32.4 µM (inactive)
GI50 (SF-539): 22.5 µM (inactive)
GI50 (EKVX): 25.2 µM (inactive)
GI50 (COLO 205): 18.3 µM (inactive)
GI50 (CCRF-CEM): 45.4 µM (inactive)
GI50 (OVCAR-8): 36.2 µM (inactive)
GI50 (BT-549): 40.9 µM (inactive)
GI50 (PC-3): 36.4 µM (inactive)
GI50 (A498): 25 µM (inactive)
GI50 (SF-295): 32.6 µM (inactive)
GI50 (SK-MEL-5): 34.4 µM (inactive)
GI50 (SNB-75): 36.4 µM (inactive)
GI50 (786-0): 36.1 µM (inactive)
GI50 (HOP-92): 25.2 µM (inactive)
GI50 (LOX IMVI): 17.5 µM (inactive)
GI50 (UACC-257): 16 µM (inactive)
GI50 (ACHN): 34 µM (inactive)
GI50 (A549): 34.1 µM (inactive)
GI50 (KM12): 27.4 µM (inactive)
GI50 (HT-29): 33 µM (inactive)
GI50 (NCI/ADR-RES): 17.9 µM (inactive)
GI50 (SK-MEL-28): 34.7 µM (inactive)
GI50 (NCI-H460): 21.9 µM (inactive)
GI50 (HOP-62): 22.8 µM (inactive)
GI50 (HCT-15): 18 µM
GI50 (SK-OV-3): 41 µM (inactive)
GI50 (SW-620): 40.7 µM (inactive)
GI50 (HCT-116): 17.9 µM (inactive)
GI50 (SNB-19): 40.7 µM (inactive)
GI50 (SR): 30.5 µM (inactive)
GI50 (MDA-MB-435): 34.2 µM (inactive)
GI50 (CAKI-1): 36 µM (inactive)
GI50 (TK-10): 36.1 µM (inactive)
GI50 (U-251): 37.2 µM (inactive)
GI50 (UO-31): 25.8 µM (inactive)
GI50 (SF-268): 37.1 µM (inactive)
GI50 (NCI-H522): 11.6 µM (inactive)
GI50 (K562): 34.7 µM (inactive)

COc1ccc(/C=C/C(=O)Oc2ccc(/C=C3\CCCCC3=O)cc2)cc1
GI50 (MCF7): > 100 µM (inactive)
GI50 (OVCAR-4): 43.2 µM (inactive)
GI50 (NCI-H23): 97.1 µM (inactive)
GI50 (MDA-MB-231): 40.9 µM (inactive)
GI50 (SK-MEL-2): > 100 µM (inactive)
GI50 (MOLT-4): 2.51 µM (inactive)
GI50 (NCI-H226): 25.3 µM (inactive)
GI50 (RPMI-8226): 3.61 µM (inactive)
GI50 (T47D): > 100 µM (inactive)
GI50 (Hs-578T): > 80.5 µM (inactive)
GI50 (DU-145): > 100 µM (inactive)
GI50 (SN12C): 50.9 µM (inactive)
GI50 (HL-60): 12.6 µM (inactive)
GI50 (Malme-3M): > 79.1 µM (inactive)
GI50 (UACC-62): 2.96 µM (inactive)
GI50 (OVCAR-5): > 100 µM (inactive)
GI50 (MDA-N): > 100 µM (inactive)
GI50 (IGROV-1): 38.6 µM (inactive)
GI50 (M14): > 100 µM (inactive)
GI50 (OVCAR-3): > 100 µM (inactive)
GI50 (RXF 393): > 100 µM (inactive)
GI50 (HCC 2998): > 39.1 µM (inactive)
GI50 (SF-539): > 100 µM (inactive)
GI50 (EKVX): > 100 µM (inactive)
GI50 (COLO 205): 19.5 µM (inactive)
GI50 (CCRF-CEM): 1.93 µM (inactive)
GI50 (OVCAR-8): > 75.9 µM (inactive)
GI50 (BT-549): 72.3 µM (inactive)
GI50 (PC-3): > 100 µM (inactive)
GI50 (A498): > 100 µM (inactive)
GI50 (SF-295): 18.4 µM (inactive)
GI50 (SK-MEL-5): > 100 µM (inactive)
GI50 (SNB-75): > 88.3 µM (inactive)
GI50 (786-0): > 100 µM (inactive)
GI50 (HOP-92): > 66.1 µM (inactive)
GI50 (LOX IMVI): > 100 µM (inactive)
GI50 (UACC-257): > 67.8 µM (inactive)
GI50 (ACHN): > 100 µM (inactive)
GI50 (A549): 80.5 µM (inactive)
GI50 (KM12): 56.1 µM (inactive)
GI50 (HT-29): 6.28 µM (inactive)
GI50 (NCI/ADR-RES): > 57.4 µM (inactive)
GI50 (SK-MEL-28): > 100 µM (inactive)
GI50 (NCI-H460): > 100 µM (inactive)
GI50 (HOP-62): 23.1 µM (inactive)
GI50 (HCT-15): 29.1 µM
GI50 (SK-OV-3): > 100 µM (inactive)
GI50 (SW-620): > 93.1 µM (inactive)
GI50 (HCT-116): 9.33 µM (inactive)
GI50 (SNB-19): > 66.1 µM (inactive)
GI50 (SR): > 100 µM (inactive)
GI50 (MDA-MB-435): > 44.6 µM (inactive)
GI50 (CAKI-1): > 100 µM (inactive)
GI50 (TK-10): > 91.6 µM (inactive)
GI50 (U-251): > 94.6 µM (inactive)
GI50 (UO-31): > 100 µM (inactive)
GI50 (SF-268): 8 µM (inactive)
GI50 (NCI-H522): > 100 µM (inactive)
GI50 (K562): > 100 µM (inactive)
